The values that follow come from ChEMBL document CHEMBL5291721, “A preclinical secondary pharmacology resource illuminates target-adverse drug reaction associations of marketed drugs” (Nat Commun, 2023).

By AC50 is commonly meant the concentration giving half of the maximal activity seen. Low values mean activity at low concentration, high ones activity only at high concentration.

The target of assay [1] is T1, Endothelin-1 receptor (Homo sapiens, UniProt P25101).
T1 sequence (P25101 whole entry): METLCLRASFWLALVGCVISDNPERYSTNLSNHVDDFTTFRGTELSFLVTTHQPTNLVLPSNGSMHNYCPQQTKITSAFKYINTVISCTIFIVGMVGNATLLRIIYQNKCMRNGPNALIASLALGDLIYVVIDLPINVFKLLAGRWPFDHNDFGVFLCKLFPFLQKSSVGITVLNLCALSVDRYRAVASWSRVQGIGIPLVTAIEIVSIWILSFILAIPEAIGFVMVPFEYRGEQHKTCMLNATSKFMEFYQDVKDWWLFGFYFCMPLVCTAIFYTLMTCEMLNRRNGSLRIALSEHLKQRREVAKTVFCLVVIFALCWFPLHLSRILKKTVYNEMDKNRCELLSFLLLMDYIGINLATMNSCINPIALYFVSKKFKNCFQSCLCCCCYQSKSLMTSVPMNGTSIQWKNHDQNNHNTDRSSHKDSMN

Assay [2] addresses T2, Estrogen receptor (Homo sapiens, UniProt P03372).
T2 sequence (P03372 whole entry): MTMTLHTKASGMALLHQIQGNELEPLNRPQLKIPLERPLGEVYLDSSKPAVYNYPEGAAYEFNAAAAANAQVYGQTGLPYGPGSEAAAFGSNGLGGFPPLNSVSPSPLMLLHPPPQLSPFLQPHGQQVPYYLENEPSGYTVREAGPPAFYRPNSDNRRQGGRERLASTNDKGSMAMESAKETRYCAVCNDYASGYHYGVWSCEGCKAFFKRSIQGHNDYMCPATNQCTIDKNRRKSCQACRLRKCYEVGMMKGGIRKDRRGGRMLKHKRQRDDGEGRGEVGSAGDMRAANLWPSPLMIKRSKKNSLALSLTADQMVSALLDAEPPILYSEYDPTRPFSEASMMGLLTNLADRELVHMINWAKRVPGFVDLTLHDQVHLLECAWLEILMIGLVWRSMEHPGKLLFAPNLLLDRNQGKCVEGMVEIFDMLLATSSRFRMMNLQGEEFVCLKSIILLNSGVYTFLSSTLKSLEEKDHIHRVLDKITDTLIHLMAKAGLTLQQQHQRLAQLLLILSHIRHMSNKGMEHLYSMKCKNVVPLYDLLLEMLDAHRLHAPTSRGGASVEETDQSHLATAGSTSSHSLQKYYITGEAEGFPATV

For assay [3], the target named is T3, Progesterone receptor (Homo sapiens, UniProt P06401).
T3 sequence (P06401 whole entry): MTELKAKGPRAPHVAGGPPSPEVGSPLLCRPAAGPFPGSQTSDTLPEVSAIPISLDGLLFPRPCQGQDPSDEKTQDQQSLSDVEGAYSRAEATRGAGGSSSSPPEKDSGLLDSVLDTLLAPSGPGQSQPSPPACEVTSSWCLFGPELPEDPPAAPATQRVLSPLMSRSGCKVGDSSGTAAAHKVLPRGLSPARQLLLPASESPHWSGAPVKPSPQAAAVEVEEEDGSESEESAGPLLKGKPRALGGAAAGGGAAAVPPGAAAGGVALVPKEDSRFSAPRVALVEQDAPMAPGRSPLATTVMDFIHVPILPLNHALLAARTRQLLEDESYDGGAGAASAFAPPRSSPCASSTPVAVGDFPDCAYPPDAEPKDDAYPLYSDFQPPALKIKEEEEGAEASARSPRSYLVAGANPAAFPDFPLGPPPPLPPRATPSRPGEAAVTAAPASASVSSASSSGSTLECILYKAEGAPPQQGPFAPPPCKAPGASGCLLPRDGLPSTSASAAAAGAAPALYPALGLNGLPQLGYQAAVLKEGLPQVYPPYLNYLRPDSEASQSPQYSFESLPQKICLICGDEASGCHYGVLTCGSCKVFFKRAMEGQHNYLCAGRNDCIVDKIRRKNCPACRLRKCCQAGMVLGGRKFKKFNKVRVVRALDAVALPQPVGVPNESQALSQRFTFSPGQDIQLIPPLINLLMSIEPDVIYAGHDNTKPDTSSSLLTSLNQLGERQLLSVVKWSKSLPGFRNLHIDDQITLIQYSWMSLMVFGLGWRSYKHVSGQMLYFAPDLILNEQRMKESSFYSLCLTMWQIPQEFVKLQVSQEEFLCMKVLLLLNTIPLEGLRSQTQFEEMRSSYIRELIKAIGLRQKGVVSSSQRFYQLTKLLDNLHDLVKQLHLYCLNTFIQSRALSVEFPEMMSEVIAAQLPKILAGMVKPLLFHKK
Type of assay: functional.

The target of assay [4] is Cannabinoid receptor 1 (Homo sapiens, UniProt P21554).
The target in assay [5] is T4, 5-hydroxytryptamine receptor 1A (Homo sapiens, UniProt P08908).
T4 sequence (P08908 whole entry): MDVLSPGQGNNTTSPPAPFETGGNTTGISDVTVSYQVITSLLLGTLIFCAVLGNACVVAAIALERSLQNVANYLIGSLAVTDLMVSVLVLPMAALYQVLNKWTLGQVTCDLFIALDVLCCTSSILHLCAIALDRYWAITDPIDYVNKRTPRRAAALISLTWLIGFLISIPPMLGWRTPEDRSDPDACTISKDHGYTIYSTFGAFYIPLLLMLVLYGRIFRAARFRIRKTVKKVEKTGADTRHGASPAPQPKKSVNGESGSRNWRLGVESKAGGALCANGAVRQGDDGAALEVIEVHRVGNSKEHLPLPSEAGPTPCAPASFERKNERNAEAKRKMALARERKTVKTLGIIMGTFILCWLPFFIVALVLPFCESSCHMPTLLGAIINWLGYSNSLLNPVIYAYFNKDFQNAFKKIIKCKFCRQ
Type of assay: functional, cell-based.

The target in assay [6] is Muscarinic acetylcholine receptor M3 (Homo sapiens, UniProt P20309).
In assay [7] the target is Sodium-dependent serotonin transporter (Homo sapiens, UniProt P31645).
The target in assay [8] is Beta-2 adrenergic receptor (Homo sapiens, UniProt P07550). The class given is functional, cell-based.

SMILES strings stand for the structures.
Also: assay procedure not described here.

Chain of Sodium-dependent serotonin transporter (P31645 whole entry): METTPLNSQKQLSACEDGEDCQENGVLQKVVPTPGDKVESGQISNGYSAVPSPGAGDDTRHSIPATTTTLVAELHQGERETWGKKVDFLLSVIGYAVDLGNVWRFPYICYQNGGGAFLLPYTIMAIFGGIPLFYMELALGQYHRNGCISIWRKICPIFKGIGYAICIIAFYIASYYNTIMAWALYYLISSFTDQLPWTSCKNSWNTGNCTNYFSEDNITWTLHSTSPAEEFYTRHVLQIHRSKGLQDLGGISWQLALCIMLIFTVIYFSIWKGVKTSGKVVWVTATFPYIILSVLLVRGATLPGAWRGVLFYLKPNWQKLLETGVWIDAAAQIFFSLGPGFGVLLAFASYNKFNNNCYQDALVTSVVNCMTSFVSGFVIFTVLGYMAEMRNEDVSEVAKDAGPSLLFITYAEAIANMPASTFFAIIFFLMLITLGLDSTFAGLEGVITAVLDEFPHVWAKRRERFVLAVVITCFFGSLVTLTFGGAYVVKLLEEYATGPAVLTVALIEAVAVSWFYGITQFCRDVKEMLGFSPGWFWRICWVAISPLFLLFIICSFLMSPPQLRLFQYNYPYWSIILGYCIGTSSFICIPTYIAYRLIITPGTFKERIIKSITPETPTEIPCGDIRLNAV
Chain of Beta-2 adrenergic receptor (P07550 whole entry): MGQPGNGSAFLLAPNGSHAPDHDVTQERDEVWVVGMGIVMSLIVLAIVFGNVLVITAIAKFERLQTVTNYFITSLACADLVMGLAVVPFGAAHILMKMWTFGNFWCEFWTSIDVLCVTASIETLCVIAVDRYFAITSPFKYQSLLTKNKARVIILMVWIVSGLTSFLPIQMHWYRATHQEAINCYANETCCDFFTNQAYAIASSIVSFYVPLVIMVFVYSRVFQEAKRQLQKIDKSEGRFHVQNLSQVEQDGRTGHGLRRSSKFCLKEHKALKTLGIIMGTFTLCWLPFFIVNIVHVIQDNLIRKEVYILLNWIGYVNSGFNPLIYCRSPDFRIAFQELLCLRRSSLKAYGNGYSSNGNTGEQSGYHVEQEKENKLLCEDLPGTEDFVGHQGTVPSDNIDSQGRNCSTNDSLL
Chain of Muscarinic acetylcholine receptor M3 (P20309 whole entry): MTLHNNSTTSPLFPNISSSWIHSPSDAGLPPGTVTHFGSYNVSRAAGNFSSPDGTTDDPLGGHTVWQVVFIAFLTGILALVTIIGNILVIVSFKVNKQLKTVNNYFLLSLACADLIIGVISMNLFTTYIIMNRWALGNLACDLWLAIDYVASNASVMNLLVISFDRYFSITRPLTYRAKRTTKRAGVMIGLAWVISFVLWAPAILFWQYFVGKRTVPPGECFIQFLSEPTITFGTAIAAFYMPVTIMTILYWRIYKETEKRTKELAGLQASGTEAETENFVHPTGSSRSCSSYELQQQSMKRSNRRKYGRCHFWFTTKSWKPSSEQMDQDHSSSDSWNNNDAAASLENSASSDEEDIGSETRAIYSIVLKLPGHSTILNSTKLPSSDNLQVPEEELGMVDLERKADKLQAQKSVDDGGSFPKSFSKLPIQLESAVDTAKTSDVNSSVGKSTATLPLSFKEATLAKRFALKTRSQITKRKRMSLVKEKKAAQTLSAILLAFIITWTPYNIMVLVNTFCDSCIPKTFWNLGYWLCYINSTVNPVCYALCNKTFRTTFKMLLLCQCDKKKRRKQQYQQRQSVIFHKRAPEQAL
Chain of Cannabinoid receptor 1 (P21554 whole entry): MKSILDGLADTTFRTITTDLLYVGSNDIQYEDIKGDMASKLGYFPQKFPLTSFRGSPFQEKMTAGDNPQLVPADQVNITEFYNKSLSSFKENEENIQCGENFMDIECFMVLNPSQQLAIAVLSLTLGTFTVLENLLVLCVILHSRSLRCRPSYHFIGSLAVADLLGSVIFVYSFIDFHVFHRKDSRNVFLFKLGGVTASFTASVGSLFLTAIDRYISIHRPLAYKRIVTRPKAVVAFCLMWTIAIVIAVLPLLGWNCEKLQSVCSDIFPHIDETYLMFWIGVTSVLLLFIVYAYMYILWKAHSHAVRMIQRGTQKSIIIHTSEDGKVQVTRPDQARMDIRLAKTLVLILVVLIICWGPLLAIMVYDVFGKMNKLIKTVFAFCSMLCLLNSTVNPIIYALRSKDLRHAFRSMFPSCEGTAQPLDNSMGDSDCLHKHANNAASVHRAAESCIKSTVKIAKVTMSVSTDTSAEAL

Regarding `N=C(N)NC(=O)c1nc(Cl)c(N)nc1N` [AMILORIDE], the AC50 in assay [1] was greater than 30 µM; in assay [2], greater than 30 µM; in assay [3] it was greater than 30 µM; in assay [4] it was greater than 30 µM; in assay [5], 16 µM.

Turning to `COc1ccc(-c2cc(=S)ss2)cc1` [ANETHOLTRITHION], the AC50 was greater than 10 µM in assay [1]; greater than 30 µM in assay [2]; greater than 30 µM in assay [6]; greater than 30 µM in assay [5]; greater than 10 µM in assay [7].

As for `CC(C)(C)NCC(O)COc1ccccc1C#N` (centres undefined) [BUNITROLOL], the AC50 in assay [8] and in assay [6] was greater than 30 µM in each case.

On to `C[C@]12CCC(=O)C=C1C=C[C@@H]1[C@@H]2CC[C@@]2(C)[C@H]1CC[C@@]21CCC(=O)O1` [CANRENONE], for which the AC50 in assay [1], in assay [2], in assay [8], in assay [6], in assay [5] and in assay [7] was greater than 30 µM in each case.

`CN(C)CCC(O)(c1ccccc1)c1ccccc1Cl` (centres undefined) [CHLOPHEDIANOL]: the AC50 in assay [2] was greater than 10 µM; in assay [3], greater than 10 µM; in assay [6], greater than 30 µM; in assay [4] it was greater than 10 µM; in assay [7] it was greater than 10 µM.

For the molecule `C[C@]12C=CC(=O)C=C1C(Cl)=C[C@@H]1[C@@H]2[C@@H](O)C[C@@]2(C)[C@H]1CC[C@]2(O)C(=O)CO` [CLOPREDNOL], the AC50 in assay [1] was greater than 30 µM; in assay [2] it was greater than 30 µM; in assay [3], greater than 3 µM; in assay [8] it was greater than 30 µM; in assay [6], greater than 30 µM; in assay [5] it was greater than 30 µM. In assay [7], this molecule had an AC50 greater than 30 µM.

Consider `COc1cccc2c1C(=O)c1c(O)c3c(c(O)c1C2=O)C[C@@](O)(C(=O)CO)C[C@@H]3O[C@H]1C[C@H](N)[C@H](O)[C@H](C)O1` [DOXORUBICIN], for which the AC50 in assay [1] is greater than 30 µM; in assay [2], 0.53 µM; in assay [3], greater than 30 µM; in assay [8] it was greater than 30 µM; in assay [4], greater than 10 µM.

Take `C[C@]12CCC(=O)C=C1[C@@H]1C[C@@H]1[C@H]1[C@@H]3[C@@H]4C[C@@H]4[C@@]4(CCC(=O)O4)[C@@]3(C)CC[C@@H]12` [DROSPIRENONE]: the AC50 in assay [1], in assay [6], in assay [4] and in assay [7] was greater than 30 µM each time.

Regarding `CC(C)(Oc1ccc(Cl)cc1)C(=O)OCCOC(=O)c1cccnc1` [ETOFIBRATE], the AC50 in assay [1], in assay [2], in assay [3], in assay [8], in assay [6] and in assay [7] was greater than 30 µM throughout.

As for `CCn1c(=O)c2c(nc(/C=C/c3ccc(OC)c(OC)c3)n2C)n(CC)c1=O` [ISTRADEFYLLINE], the AC50 in assay [3] was greater than 30 µM.

Turning to `COc1ccc(C(=O)c2ccccc2)c(O)c1` [OXYBENZONE], the AC50 in assay [8] and in assay [6] was greater than 30 µM each time.

With `C[C@]12C=CC(=O)C=C1CC[C@@H]1[C@@H]2[C@@H](O)C[C@@]2(C)[C@H]1CC[C@]2(O)C(=O)CO` [PREDNISOLONE], the AC50 was greater than 30 µM in assay [1]; greater than 30 µM in assay [2]; greater than 30 µM in assay [8]; greater than 10 µM in assay [4]; greater than 10 µM in assay [5].

With `CCC(=O)c1ccc2c(c1)N(CC(C)N(C)C)c1ccccc1S2` (centres undefined) [PROPIOMAZINE], the AC50 was greater than 30 µM in assay [2]; greater than 30 µM in assay [3]; 0.18 µM in assay [6]; greater than 10 µM in assay [4]; 2.7 µM in assay [5]; greater than 10 µM in assay [7].

For the molecule `CN(C)[C@@H]1C(O)=C(C(=O)NCN2CCCC2)C(=O)[C@@]2(O)C(O)=C3C(=O)c4c(O)cccc4[C@@](C)(O)[C@H]3C[C@@H]12` [ROLITETRACYCLINE], the AC50 was greater than 30 µM in assay [3]; greater than 10 µM in assay [6]; greater than 10 µM in assay [4]; greater than 30 µM in assay [5]; greater than 10 µM in assay [7].

Regarding `Cc1ccc(O)c([C@H](CCN(C(C)C)C(C)C)c2ccccc2)c1` [TOLTERODINE], the AC50 in assay [4], in assay [5] and in assay [7] was greater than 10 µM in each case.

`CC1(C)O[C@@H]2C[C@H]3[C@@H]4CCC5=CC(=O)C=C[C@]5(C)[C@@]4(F)[C@@H](O)C[C@]3(C)[C@]2(C(=O)CO)O1` [TRIAMCINOLONE ACETONIDE]: the concentration at half-maximal activity (AC50) in assay [1] and in assay [5] was greater than 30 µM in each case.

Regarding `Oc1cc(Cl)ccc1Oc1ccc(Cl)cc1Cl` [TRICLOSAN], the AC50 is greater than 30 µM in assay [1]; 18 µM in assay [3]; greater than 30 µM in assay [8]; greater than 30 µM in assay [6]; greater than 30 µM in assay [7].
